{"source": "patent US20230381275A1", "about": "“MUSCULAR FUNCTION IMPROVING AGENT FOR SKELETAL MUSCLE OF WHICH FUNCTION IS DEGRADED DUE TO AGING” (OSAKA UNIVERSITY, priority 2020, published 2023)", "origin": "cited, not measured here"}
{"tested_on": "not given", "settings": "relative to SVVYGLR (SEQ ID NO.: 1); earlier work of the inventors; cited from earlier work"}
{"substance": "SVVFGLR [SEQ ID No.: 2]", "angiogenic effect": "maintained"}
{"substance": "SVVWGLR [SEQ ID No.: 3]", "angiogenic effect": "maintained"}
{"substance": "SVVYGL [SEQ ID NO.: 4]", "angiogenic effect": "maintained"}
{"substance": "SVVYGLRG [SEQ ID NO.: 10]", "angiogenic effect": "maintained"}
{"substance": "VVYGLR [SEQ ID NO.: 5]", "angiogenic effect": "maintained"}
{"tested_on": "fibroblasts", "settings": "see Patent Document 1; cited from earlier work"}
{"substance": "fragment of osteopontin having SVVYGLR (SEQ ID No.: 1) at the C-terminus: thrombin-cleaved fragment of human osteopontin, or a portion thereof, having the sequence SVVYGLR at the C-terminus", "type III collagen production-promoting effect / type III collagen secretion": "effect equivalent to type III collagen production-promoting effect of SVVYGLR"}
